According to patent US9187411B2, “Leukotriene B4 antagonist compound” (Eli Lilly and Company, priority 2012, dated 2015):

Key:
[1] = test system: LTB4-induced CD11b expression in neutrophils; test: CD11b assay, human whole blood; type: cell-based; details: Neutrophil, 10 nM LTB4
Description: EDTA anti-coagulated blood is collected from human donors or mice as before. For in vitro experiments, 8 or 10 point dose response curves of test compounds are assayed at final concentrations of 78 nM-10 μM or 20 nM-10 μM respectively. ½ serial dilutions of compound at 1000× of final assayed concentration are prepared in DMSO. Compound is then diluted to 10× in DPBS (DMSO concentration is now 1%). 10 μL of compound dilutions (at 10× in DPBS) or 1% DMSO in DPBS are added to wells of a 96 deep well plate. 90 μL whole blood is added and incubated 20 min at room temperature. 11 μL of 10×LTB4 (final concentration 25 nM for mouse or 10 nM human) is added and incubated at 37° C. for 30 min. The reaction is stopped by incubating the plate on ice for 5 min. The cells are stained with 10 μL anti-mouse or anti-human CD11b-PE (BD Biosciences diluted 1:20 for mouse and undiluted for human) and incubated on ice for 30 min in the dark (for mouse experiments, 10 μL anti-mouse LY6G-FITC antibody (BD Pharmingen) diluted 1:25 is added for the final 10 min) Red blood cells (RBCs) are lysed by adding 1.5 mL of 1×BD FACSlyse (BD Biosciences) and incubating for 10 min at room temperature in the dark. […] Data are analyzed with WinList software (Verity Software House) to determine mean and median fluorescent intensity values for CD11b-PE from neutrophil population.

[2] = test system: CaCl2-induced abdominal aortic aneurysm; test: CaCl2-induced AAA animal efficacy model, rats; type: in vivo, Sprague-Dawley rats; details: 28 days, aortic lumenal perimeter
Description: A targeted application of a calcium chloride solution to the mouse aorta induces vessel dilatation Chiou et al. J. Surg. Res. (2001), 99: 371-376; Lomgo et al. J. Clin. Invest. (2002), 110: 625-632. Two weeks after treatment, the vessel dilatation compared to the original vessel diameter becomes statistically significant, with up to 75% increase of aortic lumenal perimeter after 4 weeks. Calcium precipitates have been localized primarily within the elastic network of the media. Disruption of this structure by the calcium-elastic tissue complex weakens the vessel wall, contributing to aneurysm formation. This injury also serves as a proinflammatory stimulus, recruiting neutrophils, lymphocytes, monocytes, and mast cells.
Rats: Sprague-Dawley rats, 7-8 weeks of age, are acquired from Harlan, Indianapolis, Ind., USA
Aneurysm Induction Model: All procedures are performed in accordance with Eli Lilly and Company Institutional Animal Care and Use guidelines. Upon their arrival, animals have a one week acclimation period during which they have ad libitum access to standard rodent chow (Purina #2014) and house water. Following the acclimation period, animals are anesthetized with isoflurane, and a laparotomy is performed for the CaCl2-stimulated induction of the abdominal aortic aneurysm (AAA). […] Once isolated, the region of interest (ROI) of the abdominal aorta is wrapped with sterile, cotton gauze presoaked in a 0.25 M CaCl2 solution. In sham control animals, 0.9% saline is substituted for CaCl2. After 7 min, the gauze is removed and a second CaCl2 soaked gauze reapplied. Following the second 7 min period, the gauze is removed, the aorta rinsed with 0.9% saline and the abdomen closed Animals are returned to general housing at the end of their surgical day. Compound Administration: Mice receive test compound (Example 2) by oral gavage at a dose volume of 10 mL/kg of body weight, and rats receive test compound (Example 2) by oral gavage at a dose volume of 2.5 mL/kg of body weight. Compound administration is BID (a.m. and p.m.) with the first dose given one day prior to surgery (p.m.) and the second dose given the morning of surgery. […] The day after surgery, dosing continues BID for 28 days. […] Interior cross sectional lumenal perimeter measurements (mm) are collected at that point to assess efficacy and statistically analyzed with JMP® 7 software (Cary, N.C.). Statistical Analysis: Measurements of lumenal perimeter are expressed as mean values±SE. […]
In a similar study design, the ability of the compound of Example 2 to modulate aortic aneurysm dilation following CaCl2-induced injury is evaluated in Sprague-Dawley rats.

SMILES: CCCc1c(NC(=O)CC(C)(C)C(=O)[O-])cccc1OCCCOc1cc(O)c(-c2ccc(F)cc2)cc1CC.[Na+] [Example 2, Sodium 4-[[3-[3-[2-ethyl-4-(4-fluorophenyl)-5-hydroxy-phenoxy]propoxy]-2-propyl-phenyl]amino]-2,2-dimethyl-4-oxo-butanoate]
- IC50 [1]: 193 nM
- % Reduced (±S.E.) of AAA ([2]; 3 mg/kg b.i.d. oral gavage): 46% ± 7
- % Reduced (±S.E.) of AAA ([2]; 10 mg/kg b.i.d. oral gavage): 69% ± 4
- % Reduced (±S.E.) of AAA ([2]; 30 mg/kg b.i.d. oral gavage): 85% ± 5
- % Reduced (±S.E.) of AAA ([2]; 60 mg/kg b.i.d. oral gavage): 69% ± 10
